Experimental data published in PubChem BioAssay (NCI).
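Method: 48-hour compound exposure of cells in 96-well plates, five concentrations, linear interpolation of endpoints. GI50 is the concentration that inhibits growth by half. TGI: concentration producing complete growth inhibition.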

Experiments:
Test in all cases: NCI-60 cell line screen, 48 h
CAKI-1 renal = tested on: CAKI-1 renal
UACC-62 melanoma = tested on: UACC-62 melanoma
UO-31 renal = tested on: UO-31 renal
OVCAR-4 ovarian = tested on: OVCAR-4 ovarian
SK-MEL-2 melanoma = tested on: SK-MEL-2 melanoma
OVCAR-8 ovarian = tested on: OVCAR-8 ovarian
HCT-15 colon = tested on: HCT-15 colon
HOP-92 NSCLC = tested on: HOP-92 NSCLC
MALME-3M melanoma = tested on: MALME-3M melanoma
MCF7 breast = tested on: MCF7 breast

Row | SMILES | TGI (CAKI-1 renal) | TGI (UACC-62 melanoma) | TGI (UO-31 renal) | TGI (OVCAR-4 ovarian) | TGI (SK-MEL-2 melanoma) | TGI (OVCAR-8 ovarian) | TGI (HCT-15 colon) | TGI (HOP-92 NSCLC) | TGI (MALME-3M melanoma) | GI50 (MCF7 breast) | TGI (MCF7 breast) | GI50 (CAKI-1 renal) | GI50 (UACC-62 melanoma) | GI50 (MALME-3M melanoma) | GI50 (OVCAR-4 ovarian) | GI50 (SK-MEL-2 melanoma) | GI50 (OVCAR-8 ovarian) | GI50 (HCT-15 colon) | GI50 (UO-31 renal) | GI50 (HOP-92 NSCLC)
1 | O=c1nc2[nH]nc(-c3ccccc3)c2n[nH]1 | > 100 µM | > 100 µM | > 100 µM | > 100 µM | > 100 µM | > 100 µM | > 100 µM |  |  |  |  |  |  |  |  |  |  |  |  | 
2 | NC(CCCNCc1ccccc1O)C(=O)O (stereo unspecified) | > 100 µM | > 100 µM | > 100 µM | > 100 µM | > 100 µM | > 100 µM | > 100 µM | > 100 µM | > 100 µM |  |  |  |  |  |  |  |  |  |  | 
3 | O=C1[C@H](c2ccccc2)C2c3ccccc3CCN12 (stereo partly specified) | > 100 µM | > 100 µM | > 100 µM | > 100 µM | > 100 µM | > 100 µM | > 100 µM |  | > 100 µM | > 100 µM | > 100 µM | > 100 µM | > 100 µM | > 100 µM | > 100 µM | > 100 µM | > 100 µM | > 100 µM |  | 
4 | COc1ccc2c(c1)CC[C@@H]1[C@@H]2CC[C@]2(C)c3c(cc(C(=O)c4ccccc4)c4sccc34)C[C@@H]12 | > 100 µM | > 100 µM | > 100 µM | > 100 µM | > 100 µM | > 100 µM | > 100 µM |  | > 100 µM | > 100 µM | > 100 µM | > 100 µM | > 100 µM | > 100 µM | 76.8 µM | > 100 µM | > 100 µM | > 100 µM | > 100 µM | 
5 | N#Cc1ccccc1/C=N/O | > 100 µM | > 100 µM | > 100 µM | > 100 µM |  | > 100 µM | > 56.3 µM | > 100 µM | > 100 µM |  |  |  |  |  |  |  |  |  |  | 
6 | COC(=O)/C(Cl)=C1/CC1COCc1ccccc1 (stereo unspecified) | 52.4 µM | 66.8 µM | 67.5 µM | 84.2 µM | 96.9 µM | > 100 µM | 35.8 µM | 50.4 µM | 83.1 µM |  |  |  |  |  |  |  |  |  |  | 
7 | COc1cc([C@@H]2c3cc4c(cc3[C@@H](NC(=O)c3ccc([N+](=O)[O-])cc3)C3COC(=O)[C@@H]32)OCO4)cc(OC)c1O (stereo partly specified) | 8.42 µM | 2.04 µM | 10.4 µM | > 100 µM | 6.61 µM | 6.05 µM | 6.43 µM | 40.2 µM | 4.89 µM |  |  |  |  |  |  |  |  |  |  | 
8 | COc1ccc2oc(-c3ccc(Cl)cc3)c(N3CCN(C)CC3)c2c1 | 3.27 µM | 3.44 µM | 2.71 µM | 7.22 µM | 4.4 µM | 3.94 µM | 3.24 µM | 2.78 µM |  | 1.7 µM | 3.5 µM | 1.57 µM | 1.73 µM |  | 2.12 µM | 1.8 µM | 1.9 µM | 1.62 µM | 1.05 µM | 0.37 µM
9 | C/C(CN1C(=O)c2ccccc2C1=O)=N\NS(C)(=O)=O | > 100 µM | > 100 µM | > 100 µM | > 100 µM | > 100 µM | > 100 µM | > 100 µM |  | > 100 µM |  |  |  |  |  |  |  |  |  |  | 
10 | Cn1cc(-c2nc(-c3cn(C)c4ncccc34)cs2)c2cc(F)ccc21 | 11.9 µM | > 100 µM |  | > 100 µM | 37.2 µM | > 100 µM | > 100 µM | 8.14 µM |  | 0.528 µM | 60.5 µM | 0.776 µM | 1.33 µM |  | 0.746 µM | 3.96 µM | 3.26 µM | 1.51 µM |  | 2.31 µM
11 | Cn1c(-c2ccccc2)c/c(=N\NS(C)(=O)=O)c2cc(S(=O)(=O)O)ccc21 | > 100 µM | > 100 µM | > 100 µM | > 100 µM | > 100 µM | > 100 µM | > 100 µM | > 100 µM | > 100 µM |  |  |  |  |  |  |  |  |  |  | 
12 | Clc1ccc(CCn2cncn2)c(Cl)c1 | > 100 µM | > 100 µM | > 100 µM | > 100 µM |  | > 100 µM | > 100 µM | > 100 µM |  |  |  |  |  |  |  |  |  |  |  | 
13 | NNc1nc(-c2ccccn2)nc2sc3c(c12)CCCCCC3 | 25.6 µM | 48.8 µM | 18.7 µM | > 100 µM | > 100 µM | > 100 µM | > 100 µM | 48.6 µM |  | 3.84 µM | > 100 µM | 0.575 µM | 5.96 µM |  | 10.4 µM | 14.4 µM | 4.39 µM | 1.12 µM | 1.03 µM | 3.54 µM
14 | C#CCOc1c(OC)cc(C(=O)/C(C)=C/c2cccc(N=[N+]=[N-])c2)cc1OC | > 100 µM | > 100 µM | > 100 µM | > 100 µM | > 100 µM | > 100 µM | > 100 µM | 9.11 µM |  | 0.0447 µM | > 100 µM | 0.247 µM | 0.253 µM |  | 1.19 µM | 0.725 µM | 0.427 µM | 0.0499 µM | 0.751 µM | 0.196 µM
15 | C#Cc1ccc(-n2c(/C=C/c3ccc4ccccc4n3)nc3ncccc3c2=O)cc1 | 2.69 µM | 1.75 µM | 1.8 µM | 1.81 µM | 0.785 µM | 2.95 µM |  | 1.8 µM | 2.35 µM |  |  | 0.501 µM | 0.394 µM | 0.798 µM | 0.315 µM | 0.306 µM | 0.763 µM |  | 0.403 µM | 0.37 µM
16 | [O-][N+]1=C(c2ccccc2)COc2ccccc21 | > 100 µM | > 100 µM | > 100 µM | > 100 µM | > 100 µM | > 100 µM | > 100 µM | > 100 µM | > 100 µM |  |  |  |  |  |  |  |  |  |  | 
17 | COc1ccc(OC)c(/C=C/c2cnnc3ccccc23)c1 | > 10 µM | > 10 µM | > 10 µM | > 10 µM | 6.43 µM | > 10 µM | > 10 µM | > 10 µM |  |  | > 10 µM |  |  |  |  |  |  |  |  | 
18 | Cc1cc2c(=O)cc(-c3ccc(C(=O)O)cc3)oc2c(C(=O)O)c1C | > 100 µM | > 100 µM | > 100 µM | > 100 µM | > 100 µM | > 100 µM | > 100 µM | > 100 µM | > 100 µM |  |  |  |  |  |  |  |  |  |  | 
19 | FC(F)(F)c1ccccc1C=NC12CC3CC(CC(C3)C1)C2 | > 100 µM |  | 12.1 µM | > 100 µM | > 100 µM | > 100 µM | > 100 µM |  | > 100 µM |  |  |  |  |  |  |  |  |  |  | 
